What all share (format): in vivo
For experiment [1], the system named is Echinochloa crus-galli. As to the kind of experiment: Test Example 1: herbicidal effect test by treatment of rice paddy soil (immediately after seeding). The procedure, abridged: (§1)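 Values are herbicidal rates (%) derived from average plant dry weight in treated versus untreated pots 14 days after treatment, run in duplicate. Treatment was a water-diluted emulsion dropped into flooded paddy soil right after sowing, at 120 g active ingredient per 10 ares.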

For experiment [2], the system named is Scirpus juncoides. The description is as above. The procedure, abridged: as §1
Experiment [3] concerns broad leaf weeds (Lindernia pyxidaria and Monochoria vaginalis). The description is as above. The procedure, abridged:
as §1

In experiment [4] the test system is Echinochloa crus-galli. As to the kind of experiment: Test Example 2: herbicidal effect test by treatment during growing period in paddy rice cultivation (seven days after seeding). Conditions: for Herbicidal rate (%) Echinochloa crus-galli: 120 g/10a active ingredient, assessed 14 days after treatment, dry weight vs untreated area; for herbicidal rate, Echinochloa crus-galli: 120 g/10a, rated 14 days after treatment, paddy soil pots. A digest of the protocol: (§2)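 Sow 30 seeds per species (0–1 cm) into puddled, fertilized paddy soil; keep flooded ~3 cm in greenhouse. Day 7 after seeding: drop water-diluted emulsion, 120 g a.i./10 ares. Harvest 14 d post-treatment; compare dry weight with untreated pots (duplicate).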

Experiment [5] has as its system Scirpus juncoides. The experiment is described as above. The conditions noted are these: for Herbicidal rate (%) Scirpus juncoides: 120 g/10a active ingredient, assessed 14 days after treatment, dry weight vs untreated area; for herbicidal rate, Scirpus juncoides: 120 g/10a, rated 14 days after treatment, paddy soil pots. The procedure, abridged: as §2
In experiment [6] the test system is broad leaf weeds (Lindernia pyxidaria and Monochoria vaginalis). The description is as above. Conditions: for Herbicidal rate (%) Lindernia pyxidaria / Herbicidal rate (%) Monochoria vaginalis: 120 g/10a active ingredient, assessed 14 days after treatment, dry weight vs untreated area; for herbicidal rate, Lindernia pyxidaria / herbicidal rate, Monochoria vaginalis: 120 g/10a, rated 14 days after treatment, paddy soil pots. A digest of the protocol: as §2

For experiment [7], the system named is Amaranthus viridis. The experiment can be described thus: Test Example 3: herbicidal effect test by treatment of dry field farming soil (one day after seeding). The conditions noted are these: 120 g/10a active ingredient, evaluated 14 days after treatment. The method, then:
(§3) This test was conducted in a double system per one agent solution concentration area, and the herbicidal rates (%) were determined by the following equation (Math. 1) on 14 days after the treatment with the agents. Herbicidal Rate (%)={1-(Average Dry Weight (g) of Plant of Treated Area)/(Average Dry Weight (g) of Plant of Untreated Area)}×100 [Math. 1]
(§4) Herbicidal Effect Test by Treatment of Dry Field Farming Soil
(§5) Pots with a size of 36 cm^2 were filled with a dry field farming soil (alluvium). The soil of the top layer of 1 cm and seeds of weeds, namely southern crabgrass, Echinochloa crus-galli, Chenopodium album and Amaranthus viridis, 20 seeds each, were evenly mixed, and the top layer was gently pressed. Emulsions prepared using the compounds in Table 5 below according to Formulation Example 5 were diluted with water one day after seeding, and the water-diluted agent solutions were sprayed to the soil surfaces at a ratio of 100 liters per 10 ares. The converted amount of the applied active ingredient corresponded to 120 g per 10 ares. The herbicidal effects were evaluated by the same standard as that in Test Example 1 on 14 days after the treatment with the agents. […] The compound numbers in Table 5 are the same as those in Table 1 and Table 2 above.

Experiment [8] concerns Chenopodium album. The experiment is described as above. Conditions: 120 g/10a active ingredient, evaluated 14 days after treatment. On the procedure:
as §3, §4, §5

For experiment [9], the system named is Echinochloa crus-galli. The experiment is described as above. The conditions noted are these: 120 g/10a active ingredient, evaluated 14 days after treatment. The method, then: as §3, §4, §5
Experiment [10] deals with southern crabgrass. The experiment is described as above. Conditions: 120 g/10a active ingredient, evaluated 14 days after treatment. On the procedure: as §3, §4, §5
Setting [11] is: 120 g/10a active ingredient, dry weight vs untreated area, 14 days after treatment.
[12] abbreviates: Lindernia pyxidaria, 120 g/10a active ingredient, dry weight vs untreated area, 14 days after treatment.
Setting [13] is: Monochoria vaginalis, 120 g/10a active ingredient, dry weight vs untreated area, 14 days after treatment.
The mark [14] stands for this setting: 120 g/10a active ingredient, 14 days after treatment, dry weight vs untreated area.
The mark [15] stands for this setting: Lindernia pyxidaria, 120 g/10a active ingredient, 14 days after treatment, dry weight vs untreated area.
[16] abbreviates: Monochoria vaginalis, 120 g/10a active ingredient, 14 days after treatment, dry weight vs untreated area.

`Cc1c(Cc2ccccc2NS(=O)(=O)C(F)(F)F)c(=O)on1CCOCC(C)C` [Compound 1-156]: the “Herbicidal rate (%) Echinochloa crus-galli” value in [1] (setting [11]) is 100%; in [4], 80%. In addition, the “Herbicidal rate (%) Scirpus juncoides” value is recorded as 100% in experiment [2] (setting [11]) and 90% in experiment [5]. Also, the “Herbicidal rate (%) Lindernia pyxidaria” value in [3] (setting [12]) and in [6] was 100% in each case. The figures for the “Herbicidal rate (%) Monochoria vaginalis” value in [3] (setting [13]) and in experiment [6] were 80% and 100%, respectively. Further, the “herbicidal rate, Amaranthus viridis” value in experiment [7] was determined as 60%. The “herbicidal rate, Chenopodium album” value in [8] came to 60%. The “herbicidal rate, Echinochloa crus-galli” value in [9] came out at 80%. In addition, the “herbicidal rate, southern crabgrass” value in experiment [10] was found to be 80%.

Take `CCn1oc(=O)c(Cc2ccccc2N(S(=O)(=O)C(F)(F)F)S(=O)(=O)C(F)(F)F)c1C` [Compound 1-960]: the “Herbicidal rate (%) Echinochloa crus-galli” value came out at 80% in [1] (setting [11]) and 70% in [4]. The “Herbicidal rate (%) Scirpus juncoides” value in experiment [2] (setting [11]) is 80%; in [5], 70%. In addition, the “Herbicidal rate (%) Lindernia pyxidaria” value in experiment [3] (setting [12]) and in experiment [6] was 70% throughout. The “Herbicidal rate (%) Monochoria vaginalis” value in experiment [3] (setting [13]) and in experiment [6] was 70% in each case. For the same compound, the “herbicidal rate, Amaranthus viridis” value in [7] turned out to be 0%. Besides, the “herbicidal rate, Chenopodium album” value in experiment [8] turned out to be 0%. For the same compound, in experiment [9], the “herbicidal rate, Echinochloa crus-galli” value stood at 100%. Moreover, the “herbicidal rate, southern crabgrass” value in [10] is 80%.

For the compound `Cc1c(Cc2ccccc2N(S(=O)(=O)C(F)(F)F)S(=O)(=O)C(F)(F)F)c(=O)on1Cc1ccsc1` [Compound 1-1055], in experiment [1] (setting [14]), the “Herbicidal rate (%) Echinochloa crus-galli” value was determined as 60%. Also, in experiment [2] (setting [14]), the “Herbicidal rate (%) Scirpus juncoides” value is reported as 90%. Also, the “Herbicidal rate (%) Lindernia pyxidaria” value in [3] (setting [15]) was 100%. Moreover, in [3] (setting [16]), the “Herbicidal rate (%) Monochoria vaginalis” value is 100%. Besides, the “herbicidal rate, Echinochloa crus-galli” value in experiment [4] was determined as 80%. The “herbicidal rate, Scirpus juncoides” value in experiment [5] turned out to be 80%. Further, in experiment [6], the “herbicidal rate, Lindernia pyxidaria” value is given as 40% and the “herbicidal rate, Monochoria vaginalis” value is 60%.

Regarding `Cc1c(Cc2ccccc2NS(=O)(=O)C(F)(F)F)c(=O)on1C(C)c1ccsc1` (centres unmarked) [Compound 1-235], the figures for the “Herbicidal rate (%) Echinochloa crus-galli” value in experiment [1] (setting [11]) and in experiment [4] were 90% and 50%, respectively. For the same compound, the figures for the “Herbicidal rate (%) Scirpus juncoides” value in experiment [2] (setting [11]) and in [5] were 80% and 60%, respectively. Also, the “Herbicidal rate (%) Lindernia pyxidaria” value in experiment [3] (setting [12]) is reported as 60%; in experiment [6] it was 40%. The figures for the “Herbicidal rate (%) Monochoria vaginalis” value in [3] (setting [13]) and in [6] were 80% and 60%, respectively.

For the compound `Cc1c(Cc2ccccc2N(C(=O)OCC(C)C)S(=O)(=O)C(F)(F)F)c(=O)on1Cc1ccccc1` [Compound 1-677], the entries for the “Herbicidal rate (%) Echinochloa crus-galli” value in experiment [1] (setting [11]) and in experiment [4] were 90% and 70%, respectively. Also, the “Herbicidal rate (%) Scirpus juncoides” value in experiment [2] (setting [11]) and in [5] was 90% in each case. Also, the “Herbicidal rate (%) Lindernia pyxidaria” value in experiment [3] (setting [12]) is recorded as 100%; in experiment [6] it was 80%. Further, the “Herbicidal rate (%) Monochoria vaginalis” value is given as 100% in experiment [3] (setting [13]) and 80% in experiment [6].

For `Cc1c(Cc2ccccc2N(S(=O)(=O)C(F)(F)F)S(=O)(=O)C(F)(F)F)c(=O)on1C(C)c1ccc(F)cc1F` (centres unmarked) [Compound 1-1037], the “Herbicidal rate (%) Echinochloa crus-galli” value in experiment [1] (setting [11]) and in experiment [4] was 90% throughout. The “Herbicidal rate (%) Scirpus juncoides” value was 90% in [2] (setting [11]) and 60% in experiment [5]. The figures for the “Herbicidal rate (%) Lindernia pyxidaria” value in experiment [3] (setting [12]) and in experiment [6] were 70% and 60%, respectively. Besides, the “Herbicidal rate (%) Monochoria vaginalis” value in experiment [3] (setting [13]) is on record as 60%; in [6], 50%.

In the case of `Cc1c(Cc2ccccc2N(S(=O)(=O)C(F)(F)F)S(=O)(=O)C(F)(F)F)c(=O)on1C(C)c1ccc(OC(F)(F)F)cc1` (centres unmarked) [Compound 1-1036], the “Herbicidal rate (%) Echinochloa crus-galli” value came out at 70% in experiment [1] (setting [11]) and 40% in [4]. For the same compound, the “Herbicidal rate (%) Scirpus juncoides” value in experiment [2] (setting [11]) is 70%; in experiment [5], 60%. Moreover, the “Herbicidal rate (%) Lindernia pyxidaria” value in experiment [3] (setting [12]) and in [6] was 60% in each case. Also, the “Herbicidal rate (%) Monochoria vaginalis” value in experiment [3] (setting [13]) and in [6] was 60% in each case.

Consider `Cc1c(Cc2ccccc2N(S(=O)(=O)C(F)(F)F)S(=O)(=O)C(F)(F)F)c(=O)on1CC1CCCCC1` [Compound 1-994], for which the “Herbicidal rate (%) Echinochloa crus-galli” value in experiment [1] (setting [11]) and in [4] was 90% throughout. The “Herbicidal rate (%) Scirpus juncoides” value in experiment [2] (setting [11]) came to 90%; in [5], 80%. For the same compound, the “Herbicidal rate (%) Lindernia pyxidaria” value in experiment [3] (setting [12]) is on record as 100%; in experiment [6], 60%. For the same compound, the figures for the “Herbicidal rate (%) Monochoria vaginalis” value in [3] (setting [13]) and in experiment [6] were 60% and 80%, respectively.

Take `Cc1c(Cc2ccccc2N(S(=O)(=O)C(F)(F)F)S(=O)(=O)C(F)(F)F)c(=O)on1CCOc1ccccc1` [Compound 1-1058]: in experiment [1] (setting [14]), the “Herbicidal rate (%) Echinochloa crus-galli” value was found to be 90%. For the same compound, the “Herbicidal rate (%) Scirpus juncoides” value in [2] (setting [14]) was determined as 90%. In experiment [3] (setting [15]), the “Herbicidal rate (%) Lindernia pyxidaria” value was determined as 80%. For the same compound, the “Herbicidal rate (%) Monochoria vaginalis” value in experiment [3] (setting [16]) was 70%. Besides, the “herbicidal rate, Echinochloa crus-galli” value in experiment [4] was 90%. Moreover, the “herbicidal rate, Scirpus juncoides” value in experiment [5] was 80%. Moreover, in [6], the “herbicidal rate, Lindernia pyxidaria” value is 80% and the “herbicidal rate, Monochoria vaginalis” value is reported as 90%.

For the compound `Cc1c(Cc2ccccc2N(S(=O)(=O)C(F)(F)F)S(=O)(=O)C(F)(F)F)c(=O)on1Cc1ccc(Br)cc1` [Compound 1-1016], the “Herbicidal rate (%) Echinochloa crus-galli” value in experiment [1] (setting [11]) was 90%; in [4], 40%. Besides, the “Herbicidal rate (%) Scirpus juncoides” value in [2] (setting [11]) was 80%; in experiment [5] it was 60%. Also, the “Herbicidal rate (%) Lindernia pyxidaria” value in experiment [3] (setting [12]) came to 90%; in [6], 70%. Also, the “Herbicidal rate (%) Monochoria vaginalis” value in experiment [3] (setting [13]) was found to be 60%; in experiment [6], 80%.

As for `Cc1c(Cc2ccccc2NS(=O)(=O)C(F)(F)F)c(=O)on1Cc1ccccc1F` [Compound 1-181], the results for the “Herbicidal rate (%) Echinochloa crus-galli” value in experiment [1] (setting [11]) and in experiment [4] were 90% and 50%, respectively. Further, the “Herbicidal rate (%) Scirpus juncoides” value in [2] (setting [11]) and in [5] was 90% each time. The entries for the “Herbicidal rate (%) Lindernia pyxidaria” value in experiment [3] (setting [12]) and in [6] were 100% and 80%, respectively. Besides, the “Herbicidal rate (%) Monochoria vaginalis” value in experiment [3] (setting [13]) and in experiment [6] was 90% each time.

As to `Cc1c(Cc2c(Cl)cccc2NS(=O)(=O)C(F)(F)F)c(=O)on1C(C)C` [Compound 1-46], the “Herbicidal rate (%) Echinochloa crus-galli” value in [1] (setting [11]) was found to be 60%; in experiment [4] it was 40%. In addition, the “Herbicidal rate (%) Scirpus juncoides” value in experiment [2] (setting [11]) came to 90%; in experiment [5], 60%. For the same compound, the “Herbicidal rate (%) Lindernia pyxidaria” value worked out at 80% in [3] (setting [12]) and 40% in experiment [6]. Besides, the figures for the “Herbicidal rate (%) Monochoria vaginalis” value in [3] (setting [13]) and in experiment [6] were 80% and 40%, respectively.

The values above are taken from US11109593B2, “Isoxazolin-5-one derivative and herbicide containing same as active ingredient” (HOKKO CHEMICAL INDUSTRY CO., LTD., priority 2017, dated 2021).
